Measurements reported in patent US9801809B2, “Compositions including a botanical extract and methods of using the same in skin whitening and skin lightening applications” (Access Business Group International LLC, priority 2014, dated 2017).

System: Melan-a cells
Test: Melanin production in Melan-a cells
Assay type: cell-based
Details: extract 25 μg and 12.5 μg, treated twice, compared to 100% untreated control, FIG. 3
Method: The chrysanthemum extract in an amount of 25 μg and 12.5 μg was solubilized in DMSO and added to Melan-a cells that were freshly seeded at a density of 5×10^4 cells on a 24 well plate. The cytosolic pH of the Melan-a melanocytes in this assay is about 5-7. Each dose of the chrysanthemum extract was added to the cells in triplicate. The final concentration of DMSO in the culture medium was maintained at 0.25%. Forty eight hours following the first set of treatment, the cells were again treated with the chrysanthemum extract and supplemented with fresh medium. Two days later, melanin was extracted and quantified by normalizing with protein content, following the method described by Komatsu et al. (J. Cosmet. Sci; 64, 455-453 (2013); Rana J. et al., Pigment Cell Res., 18:447 (2005)). Inhibitory activity of samples was reported as % reduction in melanin production compared to 100% untreated control (UT). Phenylthiourea (PTU), a well-known tyrosinase inhibitor was used as positive inhibitor control in the assay. FIG. 3 plots the results.

SMILES: O=c1cc(-c2ccc(O)c(O)c2)oc2cc(O[C@@H]3OC(CO)[C@@H](O)C(O)C3O)cc(O)c12 (stereo partly shown) [luteolin-7 glucoside]
- reduction in melanin production: dose-dependent inhibition
